From ChEMBL document CHEMBL4507318, “Data for DCP probe BAY-985” (2021)

Legend:
[1] = target: Beta-3 adrenergic receptor (Homo sapiens) (UniProt P13945); details: Compound concentration 10.0 uM
Rattus norvegicus = species: Rattus norvegicus; details: Compound concentration 10.0 uM
[2] = target: Cyclin-dependent kinase 16 (Homo sapiens) (UniProt Q00536)
[3] = target: Tyrosine-protein kinase Fer (Homo sapiens) (UniProt P16591)
[4] = target: Protein-tyrosine kinase 2-beta (Homo sapiens) (UniProt Q14289)
[5] = target: Casein kinase I isoform delta (Homo sapiens) (UniProt P48730)
[6] = target: Platelet-derived growth factor receptor beta (Homo sapiens) (UniProt P09619)
[7] = target: Serine/threonine-protein kinase 25 (Homo sapiens) (UniProt O00506)
[8] = target: Serine/threonine-protein kinase WNK1 (Homo sapiens) (UniProt Q9H4A3)
[9] = target: Dual specificity mitogen-activated protein kinase kinase 4 (Homo sapiens) (UniProt P45985)
[10] = target: Dual specificity protein kinase CLK1 (Homo sapiens) (UniProt P49759)
[11] = target: D(1B) dopamine receptor (Homo sapiens) (UniProt P21918); details: Compound concentration 10.0 uM
[12] = target: Protein kinase C delta type (Homo sapiens) (UniProt Q05655)
[13] = target: Non-receptor tyrosine-protein kinase TYK2 (Homo sapiens) (UniProt P29597)
[14] = target: Serine/threonine-protein kinase B-raf (Homo sapiens) (UniProt P15056)
[15] = target: Phosphatidylinositol 4-phosphate 5-kinase type-1 gamma (Homo sapiens) (UniProt O60331)
[16] = target: Muscarinic acetylcholine receptor M1 (Homo sapiens) (UniProt P11229); details: Compound concentration 10.0 uM
[17] = target: Activin receptor type-1-like (Homo sapiens) (UniProt P37023)
[18] = target: Serine/threonine-protein kinase SIK3 (Homo sapiens) (UniProt Q9Y2K2)
[19] = target: Death-associated protein kinase 1 (Homo sapiens) (UniProt P53355)
[20] = target: Serine/threonine-protein kinase PAK 3 (Homo sapiens) (UniProt O75914)
[21] = tested on: Mast/stem cell growth factor receptor Kit (Homo sapiens), P10721 [V559D]
[22] = target: Dual specificity mitogen-activated protein kinase kinase 2 (Homo sapiens) (UniProt P36507)
[23] = target: Phosphatidylinositol 4-phosphate 5-kinase type-1 alpha (Homo sapiens) (UniProt Q99755)
[24] = target: Phosphatidylinositol 4,5-bisphosphate 3-kinase catalytic subunit alpha isoform (Homo sapiens) (UniProt P42336)
[25] = target: Serine/threonine-protein kinase mTOR (Homo sapiens) (UniProt P42345)
[26] = tested on: ALK tyrosine kinase receptor (Homo sapiens), Q9UM73 [C1156Y]
[27] = target: Vascular endothelial growth factor receptor 3 (Homo sapiens) (UniProt P35916)
[28] = target: Serine/threonine-protein kinase SIK2 (Homo sapiens) (UniProt Q9H0K1)
[29] = target: Peripheral plasma membrane protein CASK (Homo sapiens) (UniProt O14936)
[30] = target: Mast/stem cell growth factor receptor Kit (Homo sapiens) (UniProt P10721)
[31] = target: Transient receptor potential cation channel subfamily M member 6 (Homo sapiens) (UniProt Q9BX84)
[32] = target: Mitogen-activated protein kinase kinase kinase 10 (Homo sapiens) (UniProt Q02779)
[33] = tested on: Epidermal growth factor receptor (Homo sapiens), P00533 [G719S]
[34] = tested on: Phosphatidylinositol 4,5-bisphosphate 3-kinase catalytic subunit alpha isoform (Homo sapiens), P42336 [E542K]
[35] = target: Tyrosine-protein kinase Fgr (Homo sapiens) (UniProt P09769)
[36] = target: Proto-oncogene tyrosine-protein kinase ROS (Homo sapiens) (UniProt P08922)
[37] = tested on: Mast/stem cell growth factor receptor Kit (Homo sapiens), P10721 [D816H]
[38] = target: Histamine H1 receptor (Homo sapiens) (UniProt P35367); details: Compound concentration 10.0 uM
[39] = target: Serine/threonine-protein kinase LATS2 (Homo sapiens) (UniProt Q9NRM7)
[40] = target: 5-hydroxytryptamine receptor 3A (Homo sapiens) (UniProt P46098); details: Compound concentration 10.0 uM
[41] = target: Serine/threonine-protein kinase Nek4 (Homo sapiens) (UniProt P51957)
[42] = target: Serine/threonine-protein kinase Nek10 (Homo sapiens) (UniProt Q6ZWH5)
[43] = target: Serine/threonine-protein kinase ICK (Homo sapiens) (UniProt Q9UPZ9)
[44] = target: Serine/threonine-protein kinase TAO1 (Homo sapiens) (UniProt Q7L7X3)
[45] = Compound concentration 1000.0 nM
[46] = Compound concentration 100.0 nM

Sequence of ALK tyrosine kinase receptor (Homo sapiens), Q9UM73 [C1156Y] (Q9UM73 whole entry C1156Y, looked up): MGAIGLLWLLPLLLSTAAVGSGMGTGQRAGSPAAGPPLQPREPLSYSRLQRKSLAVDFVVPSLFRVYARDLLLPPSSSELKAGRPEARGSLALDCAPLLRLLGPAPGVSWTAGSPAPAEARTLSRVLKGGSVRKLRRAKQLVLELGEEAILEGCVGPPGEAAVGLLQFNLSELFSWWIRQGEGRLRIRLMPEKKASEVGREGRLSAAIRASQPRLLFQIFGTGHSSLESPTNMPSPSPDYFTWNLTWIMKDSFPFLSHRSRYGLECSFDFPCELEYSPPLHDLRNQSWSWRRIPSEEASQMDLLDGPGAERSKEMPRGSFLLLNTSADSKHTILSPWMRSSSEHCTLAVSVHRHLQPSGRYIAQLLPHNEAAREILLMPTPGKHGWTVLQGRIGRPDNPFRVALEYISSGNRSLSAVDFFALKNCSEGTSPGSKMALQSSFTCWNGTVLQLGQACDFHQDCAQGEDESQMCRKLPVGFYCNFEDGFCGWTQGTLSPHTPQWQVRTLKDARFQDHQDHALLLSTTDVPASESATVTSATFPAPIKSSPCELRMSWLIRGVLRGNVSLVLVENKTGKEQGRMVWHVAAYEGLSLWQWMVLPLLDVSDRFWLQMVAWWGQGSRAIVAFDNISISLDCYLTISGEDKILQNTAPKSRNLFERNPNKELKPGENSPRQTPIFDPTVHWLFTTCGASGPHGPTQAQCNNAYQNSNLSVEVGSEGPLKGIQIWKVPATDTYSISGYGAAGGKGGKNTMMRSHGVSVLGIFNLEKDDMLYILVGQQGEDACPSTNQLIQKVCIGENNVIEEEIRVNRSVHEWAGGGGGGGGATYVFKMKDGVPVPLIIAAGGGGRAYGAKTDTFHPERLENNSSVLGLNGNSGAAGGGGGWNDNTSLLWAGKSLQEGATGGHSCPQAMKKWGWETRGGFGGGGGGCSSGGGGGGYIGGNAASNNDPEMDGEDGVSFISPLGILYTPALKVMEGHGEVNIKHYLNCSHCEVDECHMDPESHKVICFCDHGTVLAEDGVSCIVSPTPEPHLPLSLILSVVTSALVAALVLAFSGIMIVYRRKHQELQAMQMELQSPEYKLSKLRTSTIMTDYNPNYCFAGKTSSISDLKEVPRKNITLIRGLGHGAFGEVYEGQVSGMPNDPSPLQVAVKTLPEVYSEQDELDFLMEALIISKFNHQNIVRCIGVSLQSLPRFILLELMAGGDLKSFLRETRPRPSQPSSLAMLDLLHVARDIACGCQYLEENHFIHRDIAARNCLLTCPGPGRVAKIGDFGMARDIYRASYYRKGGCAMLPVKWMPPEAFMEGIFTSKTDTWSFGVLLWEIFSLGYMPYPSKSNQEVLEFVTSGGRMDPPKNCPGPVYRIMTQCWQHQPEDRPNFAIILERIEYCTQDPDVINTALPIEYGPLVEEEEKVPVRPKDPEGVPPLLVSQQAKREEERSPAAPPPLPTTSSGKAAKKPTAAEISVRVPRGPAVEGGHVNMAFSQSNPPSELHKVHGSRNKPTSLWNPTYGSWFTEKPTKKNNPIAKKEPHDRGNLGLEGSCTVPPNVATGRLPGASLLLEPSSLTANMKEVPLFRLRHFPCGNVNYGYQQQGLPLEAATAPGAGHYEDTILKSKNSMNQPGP
Sequence of Protein-tyrosine kinase 2-beta (Homo sapiens) (Q14289 whole entry, looked up, canonical isoform): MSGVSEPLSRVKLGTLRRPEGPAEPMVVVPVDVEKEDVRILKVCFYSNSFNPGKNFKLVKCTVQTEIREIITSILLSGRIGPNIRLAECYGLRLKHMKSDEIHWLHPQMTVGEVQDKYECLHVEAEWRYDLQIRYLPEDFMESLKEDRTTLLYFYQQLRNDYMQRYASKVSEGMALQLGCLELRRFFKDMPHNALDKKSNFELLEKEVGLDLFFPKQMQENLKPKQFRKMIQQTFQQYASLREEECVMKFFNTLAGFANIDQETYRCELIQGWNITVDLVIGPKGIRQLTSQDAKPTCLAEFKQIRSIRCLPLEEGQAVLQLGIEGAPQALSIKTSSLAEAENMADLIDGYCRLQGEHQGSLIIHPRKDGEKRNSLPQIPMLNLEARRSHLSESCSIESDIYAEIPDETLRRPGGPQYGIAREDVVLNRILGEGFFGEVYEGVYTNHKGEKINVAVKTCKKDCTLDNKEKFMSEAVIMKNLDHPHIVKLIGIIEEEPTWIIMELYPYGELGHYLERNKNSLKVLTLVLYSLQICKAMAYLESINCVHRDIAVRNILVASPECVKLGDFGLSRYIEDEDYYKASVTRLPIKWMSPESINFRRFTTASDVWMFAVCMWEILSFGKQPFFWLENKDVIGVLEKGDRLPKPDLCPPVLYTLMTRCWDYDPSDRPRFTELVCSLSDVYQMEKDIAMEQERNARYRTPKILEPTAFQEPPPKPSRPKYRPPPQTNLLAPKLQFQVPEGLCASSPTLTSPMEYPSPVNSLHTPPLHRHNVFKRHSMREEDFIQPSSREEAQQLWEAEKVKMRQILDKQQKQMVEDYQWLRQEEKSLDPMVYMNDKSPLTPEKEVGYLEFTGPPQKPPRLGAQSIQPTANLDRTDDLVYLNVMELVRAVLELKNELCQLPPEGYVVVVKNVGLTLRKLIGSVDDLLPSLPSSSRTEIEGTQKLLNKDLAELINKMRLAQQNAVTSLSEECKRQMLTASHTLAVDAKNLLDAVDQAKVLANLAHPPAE
Sequence of Non-receptor tyrosine-protein kinase TYK2 (Homo sapiens) (P29597 whole entry): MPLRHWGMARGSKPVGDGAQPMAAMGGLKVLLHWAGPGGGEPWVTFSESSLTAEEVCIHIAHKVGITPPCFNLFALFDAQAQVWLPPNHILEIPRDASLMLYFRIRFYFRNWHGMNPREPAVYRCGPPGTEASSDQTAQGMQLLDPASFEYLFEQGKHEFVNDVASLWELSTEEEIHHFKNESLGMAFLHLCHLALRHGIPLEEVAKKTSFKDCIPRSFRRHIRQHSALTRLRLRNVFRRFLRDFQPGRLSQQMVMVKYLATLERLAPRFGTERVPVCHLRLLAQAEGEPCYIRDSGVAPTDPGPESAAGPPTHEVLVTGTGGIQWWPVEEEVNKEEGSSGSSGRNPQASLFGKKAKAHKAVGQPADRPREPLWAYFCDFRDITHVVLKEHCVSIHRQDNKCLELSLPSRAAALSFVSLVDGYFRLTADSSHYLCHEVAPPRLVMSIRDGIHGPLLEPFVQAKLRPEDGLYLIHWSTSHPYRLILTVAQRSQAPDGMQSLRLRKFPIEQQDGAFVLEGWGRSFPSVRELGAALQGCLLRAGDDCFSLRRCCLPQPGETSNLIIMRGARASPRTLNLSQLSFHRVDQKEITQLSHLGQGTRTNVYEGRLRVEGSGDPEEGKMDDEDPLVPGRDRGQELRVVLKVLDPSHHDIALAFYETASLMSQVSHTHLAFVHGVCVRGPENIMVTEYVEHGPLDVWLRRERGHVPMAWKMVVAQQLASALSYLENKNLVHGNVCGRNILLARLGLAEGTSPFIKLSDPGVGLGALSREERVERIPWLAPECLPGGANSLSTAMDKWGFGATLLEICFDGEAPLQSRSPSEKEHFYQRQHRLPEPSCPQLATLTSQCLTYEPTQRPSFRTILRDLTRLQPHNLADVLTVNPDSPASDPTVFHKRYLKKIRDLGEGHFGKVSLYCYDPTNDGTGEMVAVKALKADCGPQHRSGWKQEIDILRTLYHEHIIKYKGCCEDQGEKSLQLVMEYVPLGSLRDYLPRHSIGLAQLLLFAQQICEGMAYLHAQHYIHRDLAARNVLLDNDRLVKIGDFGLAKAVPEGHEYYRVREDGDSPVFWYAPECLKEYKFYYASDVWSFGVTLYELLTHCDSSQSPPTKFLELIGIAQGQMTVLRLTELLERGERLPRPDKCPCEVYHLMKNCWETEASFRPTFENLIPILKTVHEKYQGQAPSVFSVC
Sequence of Serine/threonine-protein kinase 25 (Homo sapiens) (O00506 whole entry, looked up): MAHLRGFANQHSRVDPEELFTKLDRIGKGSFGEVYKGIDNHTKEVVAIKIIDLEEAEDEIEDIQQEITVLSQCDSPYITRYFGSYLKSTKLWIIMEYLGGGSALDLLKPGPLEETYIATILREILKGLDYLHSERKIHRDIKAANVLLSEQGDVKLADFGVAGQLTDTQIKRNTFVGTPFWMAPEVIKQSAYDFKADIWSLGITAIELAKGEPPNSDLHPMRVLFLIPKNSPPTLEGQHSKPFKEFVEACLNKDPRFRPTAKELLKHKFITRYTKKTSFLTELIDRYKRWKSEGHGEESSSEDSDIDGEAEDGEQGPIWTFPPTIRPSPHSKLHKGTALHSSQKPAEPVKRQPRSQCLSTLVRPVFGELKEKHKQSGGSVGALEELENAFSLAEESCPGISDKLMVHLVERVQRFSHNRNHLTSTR
Sequence of Serine/threonine-protein kinase B-raf (Homo sapiens) (P15056 whole entry): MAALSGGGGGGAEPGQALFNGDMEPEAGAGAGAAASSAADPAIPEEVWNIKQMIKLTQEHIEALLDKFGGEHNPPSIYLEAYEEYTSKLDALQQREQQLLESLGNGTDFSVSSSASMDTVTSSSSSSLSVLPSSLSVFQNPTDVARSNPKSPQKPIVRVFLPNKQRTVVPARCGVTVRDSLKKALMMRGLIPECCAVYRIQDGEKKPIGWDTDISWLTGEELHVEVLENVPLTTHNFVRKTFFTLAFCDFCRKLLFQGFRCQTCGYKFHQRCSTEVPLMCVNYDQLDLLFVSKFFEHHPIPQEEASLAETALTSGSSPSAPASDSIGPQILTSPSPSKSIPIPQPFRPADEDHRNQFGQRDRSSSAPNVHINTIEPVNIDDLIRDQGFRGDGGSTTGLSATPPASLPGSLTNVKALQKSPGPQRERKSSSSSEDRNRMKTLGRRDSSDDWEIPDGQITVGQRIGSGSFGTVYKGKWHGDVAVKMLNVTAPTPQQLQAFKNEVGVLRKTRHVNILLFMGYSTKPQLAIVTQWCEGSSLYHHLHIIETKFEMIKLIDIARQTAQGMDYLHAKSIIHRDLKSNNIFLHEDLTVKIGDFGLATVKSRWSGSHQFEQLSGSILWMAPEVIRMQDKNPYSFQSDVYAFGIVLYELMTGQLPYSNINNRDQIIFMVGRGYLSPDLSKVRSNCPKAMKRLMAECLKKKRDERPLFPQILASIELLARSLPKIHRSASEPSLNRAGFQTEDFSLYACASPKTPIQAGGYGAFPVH

CN(C)c1ncnc(-c2ccc3nc(Nc4cc(CN5CCN(C(=O)CC(F)(F)F)CC5)ccn4)[nH]c3c2)c1Cl [BAY-440]
inhibition [1]: 4.42% | inhibition (Rattus norvegicus): 13.9% | residual activity [2, 45]: 74% | residual activity [3, 45]: 100% | residual activity [4, 45]: 85% | residual activity [5, 45]: 83% | residual activity [6, 45]: 100% | residual activity [7, 45]: 100% | residual activity [8, 45]: 86% | residual activity [9, 45]: 92% | residual activity [10, 45]: 71% | inhibition [11]: -9.93% | residual activity [12, 45]: 100% | residual activity [13, 45]: 77% | residual activity [14, 45]: 83% | residual activity [15, 45]: 100% | inhibition [16]: 32.1% | residual activity [17, 45]: 94% | residual activity [18, 45]: 83% | residual activity [19, 45]: 100% | residual activity [20, 45]: 81% | residual activity [21, 45]: 75% | residual activity [22, 45]: 74% | residual activity [23, 45]: 96% | residual activity [24, 45]: 100% | residual activity [25, 45]: 100% | residual activity [26, 45]: 59% | residual activity [27, 45]: 63% | residual activity [28, 45]: 59% | residual activity [29, 45]: 89% | residual activity [30, 45]: 96% | residual activity [31, 45]: 100% | residual activity [32, 45]: 100% | residual activity [33, 45]: 79% | residual activity [34, 45]: 29% | residual activity [35, 45]: 98% | residual activity [36, 45]: 100% | residual activity [37, 45]: 75% | inhibition [38]: 26.4% | residual activity [39, 45]: 53% | inhibition [40]: 35.6% | residual activity [41, 45]: 84% | residual activity [42, 45]: 72% | residual activity [43, 45]: 100% | residual activity [44, 45]: 77%

C[C@H](c1ccnc(Nc2nc3ccc(-c4cc(N(C)C)ncn4)cc3[nH]2)c1)N1CCN(C(=O)CC(F)(F)F)CC1 [BAY-985]
inhibition [1]: 30.4% | inhibition (Rattus norvegicus): -2.73% | residual activity [2, 46]: 100% | residual activity [3, 46]: 100% | residual activity [4, 46]: 91% | residual activity [5, 46]: 89% | residual activity [6, 46]: 82% | residual activity [7, 46]: 100% | residual activity [8, 46]: 100% | residual activity [9, 46]: 100% | residual activity [10, 46]: 90% | inhibition [11]: 10.2% | residual activity [12, 46]: 100% | residual activity [13, 46]: 100% | residual activity [14, 46]: 100% | residual activity [15, 46]: 89% | inhibition [16]: 15.1% | residual activity [17, 46]: 100% | residual activity [18, 46]: 100% | residual activity [19, 46]: 93% | residual activity [20, 46]: 100% | residual activity [21, 46]: 99% | residual activity [22, 46]: 100% | residual activity [23, 46]: 100% | residual activity [24, 46]: 100% | residual activity [25, 46]: 75% | residual activity [26, 46]: 100% | residual activity [27, 46]: 92% | residual activity [28, 46]: 79% | residual activity [29, 46]: 100% | residual activity [30, 46]: 100% | residual activity [31, 46]: 100% | residual activity [32, 46]: 100% | residual activity [33, 46]: 91% | residual activity [34, 46]: 53% | residual activity [35, 46]: 85% | residual activity [36, 46]: 100% | residual activity [37, 46]: 82% | inhibition [38]: 35% | residual activity [39, 46]: 80% | inhibition [40]: 31.9% | residual activity [41, 46]: 100% | residual activity [42, 46]: 100% | residual activity [43, 46]: 88% | residual activity [44, 46]: 100%
